Like-named read-outs stand apart in the source and are kept apart here.
Test: 3H-Thymidine Incorporation Assay (24 hr drug, wash, another 48 hr; 72 hr assay)
Assay type: cell-based
Conditions: for Factor (Resistance Factor = Ratio of dCK- on Wild-type CCRF-CEM): ratio of IC50 CEM/dCK- to IC50 CCRF-CEM, 24 h exposure
[1] = NCI-H460, read-out: IC50 in μM (3H-TdR incorporation at 72 hr) H-460 24 h, H-460 human lung carcinoma, 24 h exposure to drug, wash, another 48 hr

SMILES | Factor (Resistance Factor = Ratio of dCK- on Wild-type CCRF-CEM) | other results
CCC(C)(C)OC(C)OC[C@H]1OC[C@@H](n2ccc(N)nc2=O)O1 (mixture of isomers) [Compound 117, 4-AMINO-1-{2-[1-(1,1-DI- METHYL-PROPOXY)-ETH- OXYMETHYL]-[1,3]DI- OXOLAN-4-YL}-1H-PYRI- MIDIN-2-ONE] | 494 | 
CC(=O)OC[C@H]1OC[C@@H](n2ccc(N)nc2=O)O1 [Compound 27] |  | IC50 (NCI-H460, read-out: IC50 in μM (3H-TdR incorporation at 72 hr) H-460 (72 h), H-460 human lung carcinoma, 72 h exposure): 0.0053 µM
Nc1ccn([C@@H]2CO[C@H](COC3CCCCO3)O2)c(=O)n1 (some centres unmarked) [Compound 41, 4-AMINO-1-[2-(TETRA- HYDRO-PYRAN-2-YLOXY- METHYL)-[1,3]DI- OXOLAN-4-YL]-1H-PYRI- MIDIN-2-ONE] | 5 | 
O=C(Nc1ccn([C@@H]2CO[C@H](COC(=O)Oc3ccccc3)O2)c(=O)n1)Oc1ccccc1 [Compound 43, CARBONIC ACID 4-(2-OXO-4-PHENOXY- CARBONYLAMINO-2H-PYRI- MIDIN-1-YL)-[1,3]DI- OXOLAN-2-YLMETH- YL ESTER PHENYL ESTER] | 1,000,000 | 
O=C(Nc1ccn([C@@H]2CO[C@H](CO)O2)c(=O)n1)Oc1ccccc1 [Compound 44, [1-(2-HYDROXYMETHYL-[1,3]DI- OXOLAN-4-YL)-2-OX- O-1,2-DIHYDRO-PYRI- MIDIN-4-YL]-CARBAMIC ACID PHENYL ESTER] | 1,300 | 
CCOC(=O)Nc1ccn([C@@H]2CO[C@H](CO)O2)c(=O)n1 [Compound 45, [1-(2-HYDROXYMETHYL-[1,3]DI- OXOLAN-4-YL)-2-OX- O-1,2-DIHYDRO-PYRI- MIDIN-4-YL]-CARBAMIC ACID ETHYL ESTER] | 63 | 
CCOC(=O)Nc1ccn([C@@H]2CO[C@H](COC(=O)OCC)O2)c(=O)n1 [Compound 47, CARBONIC ACID 4-(4-ETH- OXYCARBONYLAMINO-2-OX- O-2H-PYRIMIDIN-1-YL)-[1,3]DI- OXOLAN-2-YL- METHYL ESTER ETHYL ESTER] | 34 | 
Nc1ccn([C@@H]2CO[C@H](COC(=O)Cc3ccccc3)O2)c(=O)n1 [Compound 52, (2S,4S)-2-PHENYL- ACETOXYMETHYL-4-CYTO- SIN-1′-YL-1,3-DI- OXOLANE] | 400 | 
Nc1ccn([C@@H]2CO[C@H](COCOCc3ccccc3)O2)c(=O)n1 [Compound 56, 4-AMINO-1-(2-BENZYLOXY- METHOXYMETHYL-[1,3]DI- OXOLAN-4-YL)-1H-PYRI- MIDIN-2-ONE] |  | IC50 (MCF7, read-out: IC50 in μM (3H-TdR incorporation at 72 hr) MCF-7 24 h, MCF-7 human breast carcinoma, 24 h exposure to drug, wash, another 48 hr): 2 µM; IC50 [1]: 7 µM
COc1ccc(OC(=O)Nc2ccn([C@@H]3CO[C@H](COC(=O)Oc4ccc(OC)cc4)O3)c(=O)n2)cc1 [Compound 63, CARBONIC ACID 4-[4-(4-METH- OXY-PHENOXY- CARBONYLAMINO)-2-OX- O-2H-PYRIMIDIN-1-YL]-[1,3]DI- OXOLAN-2-YLMETHYL ESTER 4-METH- OXY-PHENYL ESTER] | 2,778 | 
CCCCC(C)C(=O)OC[C@H]1OC[C@@H](n2ccc(/N=C/N(C)C)nc2=O)O1 (stereo partly drawn) [Compound 64, (2S,4S)-2-(2″-METHYL-HEXANO- ICOXYMETHYL)-4-(4′-NN-DI- METHYLAMINOMETHYLENE-CYTO- SIN-1′-YL)-1,3-DI- OXOLANE] | 2,000 | 
CC(C)OC(=O)OCOC[C@H]1OC[C@@H](n2ccc(N)nc2=O)O1.O=C(O)C(F)(F)F.O=C(O)C(F)(F)F [Compound 68, CARBONIC ACID 4-(4-A- MINO-2-OXO-2H-PYRI- MIDIN-1-YL)-[1,3]DI- OXOLAN-2-YL- METHOXYMETHYL ESTER ISOPROPYL ESTER TRIFLUOROACETIC ACID SALT] | 3,333 | 
CC(C(=O)OC[C@H]1OC[C@@H](n2ccc(N)nc2=O)O1)c1ccccc1 (stereo partly drawn) [Compound 69, (2S,4S)-2-(2″-METHYL- PHENYLACETOXY)METH- YL-4-CYTOSIN-1′-YL-1,3-DI- OXOLANE] |  | IC50 [1]: 0.045 µM
